According to patent publication US10316021B2, “Heteroarylphenoxy benzamide kappa opioid ligands” (Pfizer Inc., priority 2016, dated 2019):
pKi: −log10 of the molar value. “Also recorded” adds a separate entry of the source. Like-named read-outs stand apart in the source and are kept apart here.

Columns and labels:
[1] = molecular target: T1, human kappa opioid receptor (hKOR) (Homo sapiens, UniProt P41145); test: Kappa radioligand binding assay ([3H]diprenorphine, CHO cell membranes); settings: for Selectivity hMOR/hKOR: selectivity ratio calculated by dividing the hMOR Ki by the hKOR Ki
T1 construct: expressed in transfected cells; host or cells: CHO cells
Procedure: (§1) Kappa and Mu Radioligand Binding Assay:
(§2) Binding assays on membranes from CHO cells expressing human kappa or mu opioid receptors were performed according to standard procedures. Frozen cell paste was homogenized in 50 mM Tris HCl buffer (pH 7.4 @ 4 degrees C.) containing 2.0 mM MgCl2 using a Polytron and spun in a centrifuge at 40,000 g for ten minutes. The final pellet was resuspended in assay buffer (50 mM Tris HCl buffer, pH 7.4, containing 1 mM EDTA, 5 mM MgCl2). Incubations were initiated by the addition of membranes to 96-well plates containing test drugs and [^3H]diprenorphine (0.6 nM final concentration for kappa opioid receptor and 0.5 nM final concentration for mu) in a final volume of 250 μl. Non-specific binding was determined by radioligand binding in the presence of a saturating concentration of naltrexone (10 μM). After a one hour incubation period at room temperature, assay samples were rapidly filtered through PEI coated, GF/B fired Unifilter plates (PerkinElmer) and rinsed with ice-cold 50 mM Tris buffer (pH 7.4). Membrane bound [^3H]diprenorphine levels were determined by liquid scintillation counting of the filterplates in Ecolume scintillation fluid. The IC50 value (concentration at which 50% inhibition of specific binding occurs) was calculated using a logistic 4 parameter fit model of the concentration-response data. Ki values were calculated according to the Cheng Prusoff equation, Ki=IC50/(1+(L/Kd)), where L is the concentration of the radioligand used in the experiment and the Kd value is the dissociation constant for the radioligand (determined previously by saturation analysis).

[2] = molecular target: T2, human mu opioid receptor (hMOR) (Homo sapiens, UniProt P35372); test: Mu radioligand binding assay ([3H]diprenorphine, CHO cell membranes)
T2 construct: expressed in transfected cells; host or cells: CHO cells
Procedure: as §1
as §2, with “The IC50 value (concentration at which 50% inhibition of specific binding occurs) was calculated using a logistic 4 parameter fit model of the concentration-response data.” left out

[3] = radioligand binding, [3H]diprenorphine, read-out: hKOR Ki
[4] = radioligand binding, [3H]diprenorphine, read-out: hMOR Ki
[5] = Table 19, geometric mean of 2-6 determinations unless otherwise indicated (Example 3: >=7), read-out: hKOR binding assay Ki
[6] = Table 19, geometric mean of 2-6 determinations unless otherwise indicated (Example 3: >=7), read-out: hMOR binding assay Ki
[7] = Table 20, radioligand binding, read-out: hKOR binding assay Ki
[8] = Table 20, radioligand binding, read-out: hMOR binding assay Ki

T1 sequence (P41145 whole entry): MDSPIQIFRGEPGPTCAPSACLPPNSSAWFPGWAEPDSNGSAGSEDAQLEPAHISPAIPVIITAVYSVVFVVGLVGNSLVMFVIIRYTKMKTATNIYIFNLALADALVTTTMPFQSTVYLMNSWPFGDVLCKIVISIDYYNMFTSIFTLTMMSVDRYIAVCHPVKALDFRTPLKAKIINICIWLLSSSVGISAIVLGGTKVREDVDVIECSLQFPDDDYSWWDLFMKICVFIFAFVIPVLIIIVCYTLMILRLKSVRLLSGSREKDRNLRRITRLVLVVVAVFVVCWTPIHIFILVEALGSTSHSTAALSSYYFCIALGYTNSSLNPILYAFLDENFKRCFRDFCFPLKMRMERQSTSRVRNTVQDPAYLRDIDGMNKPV
T2 sequence (P35372 whole entry): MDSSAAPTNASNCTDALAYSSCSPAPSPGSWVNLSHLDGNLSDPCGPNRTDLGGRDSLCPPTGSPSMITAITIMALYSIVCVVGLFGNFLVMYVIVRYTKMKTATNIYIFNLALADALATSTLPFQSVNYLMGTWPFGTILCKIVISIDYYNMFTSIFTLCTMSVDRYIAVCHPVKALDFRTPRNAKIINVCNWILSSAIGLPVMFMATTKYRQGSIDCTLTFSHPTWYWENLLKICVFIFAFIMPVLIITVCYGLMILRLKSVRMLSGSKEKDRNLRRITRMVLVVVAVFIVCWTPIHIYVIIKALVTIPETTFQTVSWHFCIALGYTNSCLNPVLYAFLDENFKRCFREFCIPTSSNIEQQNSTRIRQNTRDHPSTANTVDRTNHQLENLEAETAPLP

Q: COc1nn(C)cc1C1COCCN1Cc1ccc(Oc2ccc(C(N)=O)cc2F)cc1 (single isomer, unassigned) [enantiomer of Example 20, 3-fluoro-4-(4-{[3-(3-methoxy-1-methyl-1H-pyrazol-4-yl)morpholin-4-yl]methyl}phenoxy)benzamide] was tested. Which pKi [1, 3] did it give?
A: Its pKi is 6.84.

Q: What about the pKi [2, 4] of the same compound?
A: Its pKi is less than 6.25.

Q: With COc1nn(C)cc1C1CCCCN1Cc1ccc(Oc2ccc(C(N)=O)cc2)cc1 (single isomer, unassigned) [enantiomer of Example 21, 4-(4-{[2-(3-methoxy-1-methyl-1H-pyrazol-4-yl)piperidin-1-yl]methyl}phenoxy)benzamide] as the compound, how does the pKi [1, 3] read?
A: The pKi was 7.81.

Q: And the pKi [2, 4]?
A: The pKi was 6.87.

Q: Which results are given for COc1nn(C)cc1C1COCCN1Cc1ccc(Oc2ccc(C(N)=O)cc2)c(F)c1 (single isomer, unassigned) [enantiomer of Example 22, 4-(2-fluoro-4-{[3-(3-methoxy-1-methyl-1H-pyrazol-4-yl)morpholin-4-yl]methyl}phenoxy)benzamide]?
A: pKi [1, 3]: 6.58; pKi [2, 4]: < 6.25

Q: With COc1nn(C)cc1C1COCCN1Cc1ccc(Oc2ccc(C(N)=O)cc2)cc1 (single isomer, unassigned) [enantiomer of Example 23, 4-(4-{[3-(3-methoxy-1-methyl-1H-pyrazol-4-yl)morpholin-4-yl]methyl}phenoxy)benzamide] as the compound, how does the pKi [1, 3] read?
A: Its pKi is 6.65.

Q: What about the pKi [2, 4] of the same compound?
A: Its pKi is less than 6.25.

Q: How did the pKi [1, 3] turn out when COc1nn(C)cc1C1CCCN1Cc1ccc(Oc2ccc(C(N)=O)cc2)c(F)c1 (single isomer, unassigned) [enantiomer of Example 32, 4-(2-fluoro-4-{[2-(3-methoxy-1-methyl-1H-pyrazol-4-yl)pyrrolidin-1-yl]methyl}phenoxy)benzamide] was run?
A: The pKi was 9.20.

Q: What about the pKi [2, 4] of the same compound?
A: Its pKi is 7.86.

Q: With COc1nn(C)cc1C1CCCN1Cc1ccc(Oc2ccc(C(N)=O)c(O)c2)cc1 (single isomer, unassigned) [enantiomer of Example 33, 2-hydroxy-4-(4-{[2-(3-methoxy-1-methyl-1H-pyrazol-4-yl)pyrrolidin-1-yl]methyl}phenoxy)benzamide] as the compound, how does the pKi [1, 3] read?
A: Its pKi is 7.54.

Q: What about the pKi [2, 4] of the same compound?
A: Its pKi is 6.51.

Q: With Cc1c(C2CCCN2Cc2ccc(Oc3ccc(C(N)=O)cc3F)cc2)cnn1C (single isomer, unassigned) [enantiomer of Example 35, 4-(4-{[2-(1,5-dimethyl-1H-pyrazol-4-yl)pyrrolidin-1-yl]methyl}phenoxy)-3-fluorobenzamide] as the compound, how does the pKi [1, 3] read?
A: The pKi was 7.03.

Q: And the pKi [2, 4]?
A: Its pKi is 6.61.

Q: Cc1nn(C)nc1C1CCCN1Cc1ccc(Oc2ccc(C(N)=O)cc2)cc1 (single isomer, unassigned) [enantiomer of Example 38, 4-(4-{[2-(2,5-dimethyl-2H-1,2,3-triazol-4-yl)pyrrolidin-1-yl]methyl}phenoxy)benzamide] was tested. Which pKi [1, 3] did it give?
A: The pKi was less than 6.92.

Q: What about the pKi [2, 4] of the same compound?
A: Its pKi is 6.60.

Q: With Cc1nn(C)nc1C1CCCN1Cc1ccc(Oc2ccc(C(N)=O)cc2)c(F)c1 (single isomer, unassigned) [enantiomer of Example 39, 4-(4-{[2-(2,5-dimethyl-2H-1,2,3-triazol-4-yl)pyrrolidin-1-yl]methyl}-2-fluorophenoxy)benzamide] as the compound, how does the pKi [1, 3] read?
A: The pKi was 7.13.

Q: What about the pKi [2, 4] of the same compound?
A: Its pKi is 6.88.

Q: With Cc1nsc(C2CCCN2Cc2ccc(Oc3ccc(C(N)=O)cc3)cc2)n1 (single isomer, unassigned) [enantiomer of Example 41, 4-(4-{[2-(3-methyl-1,2,4-thiadiazol-5-yl)pyrrolidin-1-yl]methyl}phenoxy)benzamide] as the compound, how does the pKi [1, 3] read?
A: Its pKi is less than 6.41.

Q: And the pKi [2, 4]?
A: The pKi was less than 6.25.

Q: How did the pKi [1, 3] turn out when COc1cc(C2CCCN2Cc2ccc(Oc3ccc(C(N)=O)cc3)cc2)n(C)n1 (single isomer, unassigned) [enantiomer of Example 46, 4-(4-{[2-(3-methoxy-1-methyl-1H-pyrazol-5-yl)pyrrolidin-1-yl]methyl}phenoxy)benzamide] was run?
A: Its pKi is 6.95.

Q: What about the pKi [2, 4] of the same compound?
A: The pKi was 6.92.

Q: Which results are given for Cc1nn(C)cc1C1CCCN1Cc1ccc(Oc2ccc(C(N)=O)cc2)c(F)c1 (single isomer, unassigned; (+)) [Example 2, (+)-4-(4-{[2-(1,3-Dimethyl-1H-pyrazol-4-yl)pyrrolidin-1-yl]methyl}-2-fluorophenoxy)benzamide]?
A: pKi [1, 5]: 8.40; pKi [2, 6]: 7.56

Q: Which results are given for COc1nn(C)cc1C1CCCN1Cc1ccc(Oc2ccc(C(N)=O)cc2F)cc1 (single isomer, unassigned; (+)) [Example 9, (+)-3-Fluoro-4-(4-{[2-(3-methoxy-1-methyl-1H-pyrazol-4-yl)pyrrolidin-1-yl]methyl}phenoxy)benzamide]?
A: pKi [1, 5]: 7.65; pKi [2, 6]: < 6.45

Q: Which results are given for COc1n[nH]cc1C1CCCN1Cc1ccc(Oc2ccc(C(N)=O)cc2)cc1 (single isomer, unassigned; (+)) [Example 15, (+)-4-(4-{[2-(3-Methoxy-1H-pyrazol-4-yl)pyrrolidin-1-yl]methyl}phenoxy)benzamide]?
A: pKi [1, 5]: 7.63; pKi [2, 6]: 6.82

Q: How did the pKi [1, 5] turn out when Cc1nn(C)cc1C1CCCN1Cc1ccc(Oc2ccc(C(N)=O)c(O)c2)cc1 (single isomer, unassigned; (+)) [Example 17, (+)-4-(4-{[2-(1,3-Dimethyl-1H-pyrazol-4-yl)pyrrolidin-1-yl]methyl}phenoxy)-2-hydroxybenzamide] was run?
A: Its pKi is 7.57.

Q: And the pKi [2, 6]?
A: The pKi was 6.97.

Q: How did the pKi [1, 5] turn out when Cc1nn(C)cc1C1CCCN1Cc1ccc(Oc2ccc(C(N)=O)cc2)c(F)c1 (single isomer, unassigned; (-)) [Example 3, (−)-4-(4-{[2-(1,3-Dimethyl-1H-pyrazol-4-yl)pyrrolidin-1-yl]methyl}-2-fluorophenoxy)benzamide] was run?
A: The pKi was 9.34.

Q: What about the pKi [2, 6] of the same compound?
A: The pKi was 7.77.

Q: What does the source list for COc1n[nH]cc1C1CCCN1Cc1ccc(Oc2ccc(C(N)=O)cc2)cc1 (single isomer, unassigned; (-)) [Example 14, (−)-4-(4-{[2-(3-Methoxy-1H-pyrazol-4-yl)pyrrolidin-1-yl]methyl}phenoxy)benzamide]?
A: pKi [1, 5]: 8.22; pKi [2, 6]: 7.50

Q: How did the pKi [1, 5] turn out when Cc1nn(C)cc1C1CCCN1Cc1ccc(Oc2ccc(C(N)=O)c(O)c2)cc1 (single isomer, unassigned; (-)) [Example 18, (−)-4-(4-{[2-(1,3-Dimethyl-1H-pyrazol-4-yl)pyrrolidin-1-yl]methyl}phenoxy)-2-hydroxybenzamide] was run?
A: The pKi was 8.75.

Q: What about the pKi [2, 6] of the same compound?
A: Its pKi is 7.20.

Q: How did the “KOR potency, in words” value [1] turn out when Cc1nc([C@@H]2CCCN2Cc2ccc(Oc3ccc(C(N)=O)cc3)cc2)ns1 [Example 10, 4-(4-{[(2S)-2-(5-Methyl-1,2,4-thiadiazol-3-yl)pyrrolidin-1-yl]methyl}phenoxy)benzamide] was run?
A: Its value is “good potency”.

Q: What about the “selectivity for KOR over MOR, in words” value [1] of the same compound?
A: Its value is “good potency and selectivity; also recorded: more selective than the phenyl examples, Comparators A and B”.

Q: What about the pKi [1, 5] of the same compound?
A: Its pKi is 8.40.

Q: And the pKi [1, 7]?
A: Its pKi is 8.40.

Q: What about the “Selectivity hMOR/hKOR” value [1] of the same compound?
A: The value was 54.

Q: What about the pKi [2, 6] of the same compound?
A: The pKi was 6.66.

Q: What about the pKi [2, 8] of the same compound?
A: The pKi was 6.66.

Q: What does the source list for Cn1ccc([C@@H]2CCCN2Cc2ccc(Oc3ccc(C(N)=O)cc3F)cc2)n1 [Example 19, 3-fluoro-4-(4-{[(2S)-2-(1-methyl-1H-pyrazol-3-yl)pyrrolidin-1-yl]methyl}phenoxy)benzamide]?
A: pKi [1, 5]: 9.00; pKi [2, 6]: 7.87

Q: Which results are given for Cc1cc([C@@H]2CCCN2Cc2ccc(Oc3ccc(C(N)=O)c(O)c3)cc2)n(C)n1 [Example 27, 4-(4-{[(2S)-2-(1,3-dimethyl-1H-pyrazol-5-yl)pyrrolidin-1-yl]methyl}phenoxy)-2-hydroxybenzamide]?
A: pKi [1, 5]: 8.68; pKi [2, 6]: 6.92

Q: Which results are given for Cn1ccc([C@@H]2CCCN2Cc2ccc(Oc3ccc(C(N)=O)c(O)c3)cc2)n1 [Example 34, 2-hydroxy-4-(4-{[(2S)-2-(1-methyl-1H-pyrazol-3-yl)pyrrolidin-1-yl]methyl}phenoxy) benzamide]?
A: pKi [1, 5]: 9.29; pKi [2, 6]: 8.40

Q: Which results are given for Cc1cc(C2CCCN2Cc2ccc(Oc3ccc(C(N)=O)cc3F)cc2)no1 (stereo not shown) [Example 40]?
A: KOR potency, in words [1]: low KOR potency; pKi [1, 5]: 6.86; pKi [1, 7]: 6.86; Selectivity hMOR/hKOR [1]: 2.2; pKi [2, 6]: 6.52; pKi [2, 8]: 6.52
